# Experiments:
# [1] = system: diet induced obesity in rats; test: Protective effect against diet induced obesity in rats (treatment simultaneous with high fat diet); assay type: in vivo, Sprague-Dawley rats; conditions: 7 mg/kg per day oral, 8 weeks, vs untreated control group
# Experimental: Selected healthy Sprague-Dawley rats were randomly assigned to control or various treatment groups (n=6). All the animals allocated for protective phase of the study were on dietary intervention by feeding high fat diet ad libitum and the animals allocated to treatment groups were simultaneously given oral administration of 250 mg/kg Piper betle hydroalcohol extract per day in 10 mL of 0.5% CMC, using gastric tube for the entire 8 week study duration. The test animals of the control group were simultaneously given 10 ml/kg 0.5% CMC. The animals of positive control group were given 7 mg/kg sibutramine in 10 mL of 0.5% CMC. Food and water consumptions were recorded daily, body weights were recorded weekly and fasting blood samples were collected before initiation, after 4th week and 8th week (termination) of the study. […] Upon administration of Piper betle alcohol extract for a period of 60 days, the level of triglyceride in the obese rats was reduced by 33%. The levels of serum cholesterol and LDL were reduced by 22% and 23% respectively, whereas the level of HDL was increased by 11%.
# Selected healthy Sprague-Dawley rats were randomly assigned to control or various treatment groups (n=6). […] Food and water consumption were recorded daily, body weights were recorded weekly and fasting blood samples were collected before initiation, after 4th week and 8th week (termination) of the study. […]
# diet induced obese rats = test: Anti-obese activity in diet induced obese rats (treatment after 8 weeks high fat diet); assay type: in vivo, Sprague-Dawley rats; conditions: 7 mg/kg per day oral, vs untreated control group
# Experimental: Selected healthy Sprague-Dawley rats were randomly assigned for control or various treatment groups (n=6). All the animals allocated for the study were made obese through dietary intervention by feeding high fat diet ad libitum for 8 weeks. After 8 weeks, the treatment group of animals was given oral administration of 250 mg/kg of Piper betle 60% methanol extract per day in 10 mL of 0.5% CMC, using gastric tube for 8 week study duration. The control group of animals was given 10 ml/kg of 0.5% CMC. The animals of positive control group were given 7 mg/kg sibutramine per day in 10 mL of 0.5% CMC. Food and water consumptions were recorded daily, body weights were recorded weekly and fasting blood samples were collected before initiation, after 4th week and 8th week (termination) of the study.
# Selected healthy Sprague-Dawley rats were randomly assigned to control or various treatment groups (n=6). All the animals allocated for the study were made obese through dietary intervention by feeding high fat diet ad libitum for 8 weeks. […] Food and water consumption were recorded daily, body weights were recorded weekly and fasting blood samples were collected before initiation, after 4th week and 8th week (termination) of the study.
smiles,measurement,setting,value
CC(C)CC(N(C)C)C1(c2ccc(Cl)cc2)CCC1 (centres unmarked) [sibutramine],reduction (protection) in weight gain,[1],44.4%
same,reduction in mean body weight gain,diet induced obese rats,~87%
